Laboratory results taken from US12202843B2, “Muscarinic receptor agonists” (Nxera Pharma UK Limited, priority 2014, dated 2025).

What was measured:
Type in all cases: cell-based
[1] = molecular target: T1, human muscarinic M1 receptor (Homo sapiens, UniProt P11229); test: Alphascreen Surefire phospho-ERK1/2 functional assay, M1; details: for EC50: CHO cells stably expressing human M1, read-out: pEC50 M1 (converted); for % Emax cf. ACh, M1: CHO cells stably expressing human M1, relative to ACh; for Emax: CHO, read-out: % Emax cf. ACh, M1, CHO cells stably expressing human M1, relative to ACh
T1 sequence (P11229 1-460): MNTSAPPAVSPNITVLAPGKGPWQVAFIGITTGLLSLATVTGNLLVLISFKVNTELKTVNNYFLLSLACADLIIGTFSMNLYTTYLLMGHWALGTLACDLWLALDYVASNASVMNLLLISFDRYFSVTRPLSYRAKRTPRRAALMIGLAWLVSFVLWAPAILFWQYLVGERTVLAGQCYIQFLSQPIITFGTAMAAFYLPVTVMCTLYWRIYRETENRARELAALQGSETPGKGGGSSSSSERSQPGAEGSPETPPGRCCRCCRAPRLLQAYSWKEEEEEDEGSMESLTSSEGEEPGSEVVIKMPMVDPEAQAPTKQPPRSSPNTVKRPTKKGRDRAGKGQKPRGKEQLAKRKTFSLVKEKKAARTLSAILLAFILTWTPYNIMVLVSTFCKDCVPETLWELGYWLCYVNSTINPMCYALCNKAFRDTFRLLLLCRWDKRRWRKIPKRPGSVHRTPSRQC
Protocol: (§1) ERK1/2 phosphorylation is a downstream consequence of both Gq/11 and Gi/o protein coupled receptor activation, making it highly suitable for the assessment of M1, M3 (Gq/11 coupled) and M2, M4 receptors (Gi/o coupled), rather than using different assay formats for different receptor subtypes. CHO cells stably expressing the human muscarinic M1, M2, M3 or M4 receptor were plated (25K/well) onto 96-well tissue culture plates in MEM-alpha+10% dialysed FBS. Once adhered, cells were serum-starved overnight. Agonist stimulation was performed by the addition of 5 μL agonist to the cells for 5 min (37° C.). Media was removed and 50 μL of lysis buffer added. […] Plates were incubated for 2 h with gentle agitation in the dark and then read on a PHERAstar plate reader.
(§2) pEC50 and Emax figures were calculated from the resulting data for each receptor subtype.

[2] = molecular target: T2, human muscarinic M2 receptor (Homo sapiens, UniProt P08172); test: Alphascreen Surefire phospho-ERK1/2 functional assay, M2; details: for EC50: CHO cells stably expressing human M2, read-out: pEC50 M2 (converted); for Emax: CHO, read-out: % Emax cf. ACh, M2, CHO cells stably expressing human M2, relative to ACh
T2 sequence (P08172 1-466): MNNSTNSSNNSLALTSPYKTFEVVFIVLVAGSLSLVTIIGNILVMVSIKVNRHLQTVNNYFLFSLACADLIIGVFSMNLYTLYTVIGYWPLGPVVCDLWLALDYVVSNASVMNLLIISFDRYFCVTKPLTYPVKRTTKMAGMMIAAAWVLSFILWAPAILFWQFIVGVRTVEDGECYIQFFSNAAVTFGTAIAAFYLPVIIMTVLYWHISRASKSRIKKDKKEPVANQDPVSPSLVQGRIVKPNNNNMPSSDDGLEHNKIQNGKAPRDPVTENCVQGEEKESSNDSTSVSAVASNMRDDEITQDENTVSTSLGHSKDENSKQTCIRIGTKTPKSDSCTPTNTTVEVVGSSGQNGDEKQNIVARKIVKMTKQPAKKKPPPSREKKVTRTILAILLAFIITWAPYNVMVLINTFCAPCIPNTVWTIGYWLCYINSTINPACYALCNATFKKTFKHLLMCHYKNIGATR
Protocol: as §1, §2

[3] = molecular target: T3, human muscarinic M3 receptor (Homo sapiens, UniProt P20309); test: Alphascreen Surefire phospho-ERK1/2 functional assay, M3; details: for % Emax cf. ACh, M3: CHO cells stably expressing human M3, relative to ACh; for EC50: CHO cells stably expressing human M3, read-out: pEC50 M3 (converted)
T3 construct: expressed in transfected cells
T3 sequence (P20309 whole entry): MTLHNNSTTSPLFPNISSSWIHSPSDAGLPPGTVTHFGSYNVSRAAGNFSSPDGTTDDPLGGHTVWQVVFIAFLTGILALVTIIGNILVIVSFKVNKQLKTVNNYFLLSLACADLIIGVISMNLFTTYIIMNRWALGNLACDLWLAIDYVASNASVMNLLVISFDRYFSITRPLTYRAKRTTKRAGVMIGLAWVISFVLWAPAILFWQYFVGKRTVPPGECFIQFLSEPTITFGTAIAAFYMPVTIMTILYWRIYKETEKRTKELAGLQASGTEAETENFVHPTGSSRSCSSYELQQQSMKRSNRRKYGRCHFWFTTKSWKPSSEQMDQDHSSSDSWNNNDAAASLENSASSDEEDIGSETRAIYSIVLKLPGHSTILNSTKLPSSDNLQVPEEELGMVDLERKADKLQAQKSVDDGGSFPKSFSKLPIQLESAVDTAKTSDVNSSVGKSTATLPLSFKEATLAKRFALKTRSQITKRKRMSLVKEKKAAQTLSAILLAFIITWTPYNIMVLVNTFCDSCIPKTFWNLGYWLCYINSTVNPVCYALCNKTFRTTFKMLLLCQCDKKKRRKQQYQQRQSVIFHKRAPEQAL
Protocol: as §1, §2

[4] = molecular target: T4, human muscarinic M4 receptor (Homo sapiens, UniProt P08173); test: Alphascreen Surefire phospho-ERK1/2 functional assay, M4; details: for EC50: CHO cells stably expressing human M4, read-out: pEC50 M4 (converted); for % Emax cf. ACh, M4: CHO cells stably expressing human M4, relative to ACh; for Emax: CHO, read-out: % Emax cf. ACh, M4, CHO cells stably expressing human M4, relative to ACh
T4 construct: expressed in transfected cells
T4 sequence (P08173 1-479): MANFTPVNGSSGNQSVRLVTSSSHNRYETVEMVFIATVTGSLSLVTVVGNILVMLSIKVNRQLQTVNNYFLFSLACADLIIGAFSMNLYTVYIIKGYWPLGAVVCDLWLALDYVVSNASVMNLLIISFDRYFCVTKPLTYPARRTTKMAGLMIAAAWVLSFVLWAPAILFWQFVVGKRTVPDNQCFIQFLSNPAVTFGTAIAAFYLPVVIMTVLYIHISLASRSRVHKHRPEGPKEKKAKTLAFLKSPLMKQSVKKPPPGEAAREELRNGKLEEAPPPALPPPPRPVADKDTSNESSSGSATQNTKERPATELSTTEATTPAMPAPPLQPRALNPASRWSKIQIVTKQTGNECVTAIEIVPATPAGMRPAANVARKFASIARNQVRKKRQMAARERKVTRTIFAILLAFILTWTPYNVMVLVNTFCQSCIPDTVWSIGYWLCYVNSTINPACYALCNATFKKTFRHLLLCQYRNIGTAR
Protocol: as §1, §2

SMILES	EC50 [1]	EC50 [4]	Emax [4]	Emax [1]	other results
CCOC(=O)N1CC2CCC1CC2N1CCC2(CC1)CNC(=O)C2 (single isomer, unassigned) [Example 3-1 Isomer 3, ethyl 5-(3-oxo-2,8-diazaspiro[4.5]dec-8-yl)-2-azabicyclo[2.2.2]octane-2-carboxylate]	39.8 nM	158 nM	–	–	% Emax cf. ACh, M1 ([1]; listed as 3-1 Isomer 3): 101%; EC50 [2]: > 20 µM; % Emax cf. ACh, M2 ([2]; CHO cells stably expressing human M2, relative to ACh, listed as 3-1 Isomer 3): 17%; % Emax cf. ACh, M3 ([3]; listed as 3-1 Isomer 3): 16%; % Emax cf. ACh, M4 ([4]; listed as 3-1 Isomer 3): 41%
[2H]C([2H])([2H])COC(=O)N1C2CCC1CC(N1CCC3(CC1)CNC(=O)C3)C2 (single isomer, unassigned) [Example 2-31 Isomer 2]	25.1 nM	25.1 nM	–	–	% Emax cf. ACh, M1 ([1]; listed as 2-31 Isomer 2): 76%; EC50 [2]: > 20 µM; Emax [2]: 11%; EC50 [3]: > 20 µM; Emax ([3]; CHO, read-out: % Emax cf. ACh, M3, CHO cells stably expressing human M3, relative to ACh): 8%; % Emax cf. ACh, M4 ([4]; listed as 2-31 Isomer 2): 26%
C#CCOC(=O)N1C2CCCC1CC(N1CCC3(CC1)CNC(=O)C3)C2 (single isomer, unassigned) [Example 5-2 Isomer 1, prop-2-yn-1-yl 3-(3-oxo-2,8-diazaspiro[4.5]dec-8-yl)-9-azabicyclo[3.3.1]nonane-9-carboxylate]	100 nM	79.4 nM	37%	–	% Emax cf. ACh, M1 ([1]; listed as 5-2 Isomer 1): 78%; EC50 [2]: > 20 µM; Emax [2]: 3%; EC50 [3]: > 20 µM; % Emax cf. ACh, M3 ([3]; listed as 5-2 Isomer 1): 9%
[2H]C([2H])([2H])COC(=O)N1C2CCC1CC(N1CCC3(CC1)CNC(=O)C3)C2 (single isomer, unassigned) [Example 2-31 Isomer 1]	126 nM	251 nM	–	–	% Emax cf. ACh, M1 ([1]; listed as 2-31 Isomer 1): 112%; % Emax cf. ACh, M4 ([4]; listed as 2-31 Isomer 1): 53%
CC(C)OC(=O)N1C2CCC1CC(N1CCC3(CC1)CNC(=O)C3)C2 (single isomer, unassigned) [Example 2-33 Isomer 2]	398 nM	316 nM	–	–	% Emax cf. ACh, M1 ([1]; listed as 2-33 Isomer 2): 62%; % Emax cf. ACh, M4 [4]: 25%
CCOC(=O)N1C2CCC1CC(N1CCC3(CC1)CNC(=O)O3)C2 (single isomer, unassigned) [Example 2-14 Isomer 1]	200 nM	501 nM	55%	108%	–
CCOC(=O)N1C2CCC1CC(N1CCC3(CC1)OC(=O)NC3CC)C2 (single isomer, unassigned) [Example 2-16 Isomer 2]	631 nM	200 nM	–	–	% Emax cf. ACh, M1 ([1]; listed as 2-16 Isomer 2): 68%; % Emax cf. ACh, M4 ([4]; listed as 2-16 Isomer 2): 51%
CCOC(=O)N1CC2CCC1CC2N1CCC2(CC1)OC(=O)NC2CC (single isomer, unassigned) [Example 3-3 Isomer 2, ethyl 5-(4-ethyl-2-oxo-1-oxa-3,8-diazaspiro[4.5]dec-8-yl)-2-azabicyclo[2.2.2]octane-2-carboxylate]	794 nM	316 nM	56%	76%	–
CCOC(=O)N1C2CCC1CC(N1CCC3(CC1)CC(=O)N(C(C)C)C3)C2 (single isomer, unassigned) [Example 2-26 Isomer 2]	631 nM	631 nM	22%	43%	–
CC(C)OC(=O)N1C2CCC1CC(N1CCC3(CC1)CNC(=O)C3)C2 (single isomer, unassigned) [Example 2-33 Isomer 1]	31.6 nM	200 nM	20%	–	% Emax cf. ACh, M1 ([1]; listed as 2-33 Isomer 1): 37%
CCOC(=O)N1C2CCCC1CC(N1CCC3(CC1)CNC(=O)O3)C2 (single isomer, unassigned) [Example 5-4 Isomer 1]	398 nM	> 20000 nM	–	76%	% Emax cf. ACh, M4 ([4]; listed as 5-4 Isomer 1): 39%
